Measurements: US12509431B2, “1,4-dihydroquinazolinone compounds and uses thereof” (Edgewise Therapeutics, Inc., priority 2022, dated 2025)

Tests used:
Type in all cases: biochemical
[1] = test system: Porcine Atria myofibrils; assay: Myofibril ATPase assay (PK/LDH NADH-coupled), atria myofibrils
Outline: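 Values are EC25% (and, for inhibitors, EC50%) from 4-parameter logistic fits of activity normalized to vehicle wells. Rates came from linear regression of 340 nm kinetic reads (every 1.5-2 min, 75 min) of NADH-coupled ATP turnover by porcine atria myofibrils.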

[2] = target: T1, myosin+native RLC (Sus scrofa, UniProt P79293); assay: NADH-coupled actin-activated ATPase assay, myosin + native RLC; conditions: 1 μM myosin, rabbit skeletal actin, 25° C., 1% DMSO
T1 construct: Full-length myosin was resuspended to 1 mg/mL
Method: (§1) Full-length myosin was resuspended to 1 mg/mL in a buffer containing 500 mM KCl, 10 mM KPi, 15 mM CDTA, pH 8.5. Triton-X was then added to a final concentration of […], and the suspension was agitated for 15 minutes at room temperature to selectively remove the regulatory light chain (RLC). RLC-removed myosin was then precipitated and collected and resuspended in a buffer containing 400 mM KCl, 50 mM Mops, pH 7, 2 mM MgCl2, and 1 mM DTT. Recombinantly expressed and purified human ventricle RLC was added in a 3-fold molar excess to myosin and incubated on ice for 2 hours to allow for reassociation of the RLC onto myosin. Triton (0.1%) was added to the reaction to prevent any non-specific binding events. RLC-exchanged myosin was then precipitated and collected and resuspended in a buffer containing 12 mM PIPES, pH 6.8, […], 2 mM MgCl2, and 1 mM DTT. RLC removal and exchange were confirmed by SDS-PAGE and proteins were visualized using coomassie stain.
(§2) Myosin was resuspended in buffer A (f.c.=12 mM PIPES, pH 6.8, 30 mM KCl, 2 mM MgCl2, 1 mM DTT, 0.1 mg/mL BSA, 0.01% (v/v) Antifoam 204, and 0.6% (v/v) PK/LDH (final reaction contains ≥3.6 U/mL PK and >5.4 U/mL LDH)) at final concentrations of 1 μM for myosin+native RLC and 2 μM for myosin+removed RLC and myosin+human ventricle RLC. Buffer A was then mixed with an equal volume of buffer B (f.c.=12 mM PIPES, pH 6.8, 30 mM KCl, 2 mM MgCl2, 1 mM DTT, 0.1 mg/mL BSA, 0.01% (v/v) Antifoam 204, 0.5 mM NADH, 1.5 mM phosphoenolpyruvate, 1 mM ATP, and 0.3 mg/mL filamentous rabbit skeletal actin) in a 384-well plate. Dose-dependent compound effects were assessed by adding the compounds at varying concentrations between 100 μM and 2 nM, all with a constant final DMSO concentration of 1% v/v. The reactions were run at a constant temperature of 25° C. in the plate reader to monitor the change in A340 over time. Measurements were taken every 90 sec for 75 min to generate raw time-domain absorbance data, which was processed to normalized reaction rates. Normalized enzymatic rates were calculated, using rates observed in 1% (v/v) in DMSO as 100% and 0 slope as 0%. Compound-specific activity curves were generated by plotting the normalized rates versus compound concentration and fitting the data to a 4-parameter logistic model. In addition to the fit parameters, the IC25% was calculated, relative to the 100% normalized value.

[3] = test system: Rabbit Skeletal myofibrils (rabbit psoas muscle); assay: Myofibril ATPase assay (PK/LDH NADH-coupled), skeletal myofibrils
Outline: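 ATPase rate taken as linear-regression slope of A340 (NADH depletion through PK/LDH coupling) over a 75 min kinetic read, with psoas-derived rabbit skeletal myofibrils at pH 7.0. Four-parameter fits of vehicle-normalized activity give EC25 and, where reached, EC50.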

[4] = target: T2, myosin+human ventricle RLC (Sus scrofa, UniProt P79293); assay: NADH-coupled actin-activated ATPase assay, myosin + human ventricle RLC; conditions: 2 μM myosin, rabbit skeletal actin, 25° C., 1% DMSO
T2 construct: Full-length myosin was resuspended to 1 mg/mL
Method: as §1, §2

[5] = target: T3, myosin+removed RLC (Sus scrofa, UniProt P79293); assay: NADH-coupled actin-activated ATPase assay, myosin + removed RLC; conditions: 2 μM myosin, rabbit skeletal actin, 25° C., 1% DMSO
T3 construct: Full-length myosin was resuspended to 1 mg/mL
Method: as §1, §2

T2 sequence (P79293 whole entry): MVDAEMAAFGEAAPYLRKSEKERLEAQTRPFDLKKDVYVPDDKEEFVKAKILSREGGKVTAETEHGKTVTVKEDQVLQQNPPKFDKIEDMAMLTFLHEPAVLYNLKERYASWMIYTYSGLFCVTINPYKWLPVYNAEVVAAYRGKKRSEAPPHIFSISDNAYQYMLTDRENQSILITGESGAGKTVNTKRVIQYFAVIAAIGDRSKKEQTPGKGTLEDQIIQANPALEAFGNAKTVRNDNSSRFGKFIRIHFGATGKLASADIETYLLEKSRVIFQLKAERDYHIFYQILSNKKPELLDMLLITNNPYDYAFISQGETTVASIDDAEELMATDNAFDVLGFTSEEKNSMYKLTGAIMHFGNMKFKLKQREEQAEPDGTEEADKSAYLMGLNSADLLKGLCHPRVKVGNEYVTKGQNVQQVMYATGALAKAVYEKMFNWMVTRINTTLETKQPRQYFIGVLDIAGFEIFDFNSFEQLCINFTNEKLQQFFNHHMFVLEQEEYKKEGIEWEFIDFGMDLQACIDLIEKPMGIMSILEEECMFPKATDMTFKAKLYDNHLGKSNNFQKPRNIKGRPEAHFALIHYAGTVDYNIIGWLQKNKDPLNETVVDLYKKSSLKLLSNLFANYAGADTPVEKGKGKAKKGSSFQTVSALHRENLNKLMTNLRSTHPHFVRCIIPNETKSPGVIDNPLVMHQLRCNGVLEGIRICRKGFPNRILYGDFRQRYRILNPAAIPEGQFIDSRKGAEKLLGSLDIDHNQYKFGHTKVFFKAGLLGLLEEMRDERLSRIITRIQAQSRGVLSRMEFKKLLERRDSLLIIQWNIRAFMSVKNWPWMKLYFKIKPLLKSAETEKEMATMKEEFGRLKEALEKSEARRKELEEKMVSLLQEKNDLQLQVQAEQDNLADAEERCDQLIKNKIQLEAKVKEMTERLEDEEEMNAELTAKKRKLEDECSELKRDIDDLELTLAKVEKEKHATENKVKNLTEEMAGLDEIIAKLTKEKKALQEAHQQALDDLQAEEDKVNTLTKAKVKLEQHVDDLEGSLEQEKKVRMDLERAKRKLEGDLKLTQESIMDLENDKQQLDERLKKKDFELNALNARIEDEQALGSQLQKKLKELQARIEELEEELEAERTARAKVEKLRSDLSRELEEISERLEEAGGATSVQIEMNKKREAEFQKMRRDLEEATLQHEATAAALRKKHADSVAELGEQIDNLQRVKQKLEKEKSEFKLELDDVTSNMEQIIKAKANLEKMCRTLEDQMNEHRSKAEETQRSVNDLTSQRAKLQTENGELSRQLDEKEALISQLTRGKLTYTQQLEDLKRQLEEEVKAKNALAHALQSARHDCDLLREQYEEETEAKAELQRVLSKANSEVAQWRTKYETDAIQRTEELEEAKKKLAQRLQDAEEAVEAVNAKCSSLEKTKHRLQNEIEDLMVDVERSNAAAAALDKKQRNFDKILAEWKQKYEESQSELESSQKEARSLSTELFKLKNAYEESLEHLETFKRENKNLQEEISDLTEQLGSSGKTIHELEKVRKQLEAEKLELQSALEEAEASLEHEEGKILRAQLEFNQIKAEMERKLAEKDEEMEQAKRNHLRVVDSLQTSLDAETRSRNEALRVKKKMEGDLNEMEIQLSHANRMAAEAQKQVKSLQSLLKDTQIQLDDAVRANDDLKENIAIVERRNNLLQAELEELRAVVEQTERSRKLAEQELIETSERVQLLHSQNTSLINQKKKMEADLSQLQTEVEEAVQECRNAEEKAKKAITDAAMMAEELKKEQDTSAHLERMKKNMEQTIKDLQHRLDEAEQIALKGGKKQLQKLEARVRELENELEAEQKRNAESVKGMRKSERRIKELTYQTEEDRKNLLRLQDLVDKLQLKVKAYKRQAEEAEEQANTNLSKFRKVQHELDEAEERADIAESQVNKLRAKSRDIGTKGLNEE
T3 sequence (P79293 whole entry): as above
T1 sequence (P79293 whole entry): as above

Porcine Atria IC25 ([1]; Table 8)	Potency, Full-length myosin + native porcine ventricle RLC [2]	Rabbit Psoas IC25 ([3]; Table 8)	Potency, Full-length myosin + exchanged human ventricle RLC [4]	Potency, Full-length myosin + RLC removed [5]	Porcine Atria IC25 ([1]; Table 7)	Rabbit Psoas IC25 ([3]; Table 7)	Compound
60 nM	550 nM	19.1 nM	690 nM	>100000 nM	–	–	N#Cc1cnc2c(c1)OCC2NC(=O)CN1Cc2c(ccc(F)c2F)NC1=O (single isomer, unassigned) [Compound B65]
30 nM	970 nM	11.29 nM	680 nM	>100000 nM	–	–	CC(NC(=O)CN1Cc2cc(F)ccc2NC1=O)c1ccc(C#N)cc1F (single isomer, unassigned) [Compound B206]
130 nM	15480 nM	422.8 nM	13900 nM	>100000 nM	–	–	C[C@@H](NC(=O)CN1Cc2c(ccc(F)c2F)NC1=O)c1ncc(C#N)cc1F [Compound B141, (R)—N-(1-(5-cyano-3-fluoropyridin-2-yl)ethyl)-2-(5,6-difluoro-2-oxo-1,4-dihydroquinazolin-3(2H)-yl)acetamide]
20 nM	1190 nM	11.6 nM	670 nM	>100000 nM	–	–	O=C(CN1Cc2cc(F)ccc2NC1=O)N[C@@H]1COc2cc(F)cc(F)c21 [Compound B145]
50 nM	630 nM	16.23 nM	480 nM	>100000 nM	–	–	O=C(CN1Cc2c(ccc(F)c2F)NC1=O)N[C@@H]1COc2cc(F)cc(F)c21 [Compound B147]
30 nM	390 nM	18.79 nM	330 nM	>100000 nM	–	–	C[C@H](NC(=O)CN1Cc2c(ccc(F)c2F)NC1=O)c1ccc(C#N)cc1F [Compound B189]
40 nM	450 nM	20.19 nM	440 nM	>100000 nM	–	–	C[C@H](NC(=O)CN1Cc2c(ccc(F)c2F)NC1=O)c1ncc(F)cc1F [Compound B191]
90 nM	560 nM	39.4 nM	629 nM	>100000 nM	–	–	C[C@H](NC(=O)CN1Cc2cc(F)ccc2NC1=O)c1ncc(C#N)cc1F [Compound B199]
60 nM	970 nM	32.05 nM	1020 nM	>100000 nM	–	–	C[C@H](NC(=O)CN1Cc2cc(F)ccc2NC1=O)c1ccc(F)cc1F [Compound B247, N-[(1S)-1-(2,4-Difluorophenyl)ethyl]-2-(6-fluoro-2-oxo-1,4-dihydroquinazolin-3-yl)acetamide]
–	400 nM	–	400 nM	>100000 nM	80 nM	19.37 nM	O=C(CN1C(=O)Nc2cccnc2C12CC2)N[C@@H]1COc2cc(F)cc(F)c21 [Compound N33]
